Counter-ions that a name gives are not always drawn. Like-named read-outs stand apart in the source and are kept apart here.
Legend:
[1] = target: T1, ABCG2 (Homo sapiens, UniProt Q9UNQ0); parameters: expressed in transfected cells; host or cells: HEK293; settings: cited from earlier work
T1 sequence (Q9UNQ0 1-655): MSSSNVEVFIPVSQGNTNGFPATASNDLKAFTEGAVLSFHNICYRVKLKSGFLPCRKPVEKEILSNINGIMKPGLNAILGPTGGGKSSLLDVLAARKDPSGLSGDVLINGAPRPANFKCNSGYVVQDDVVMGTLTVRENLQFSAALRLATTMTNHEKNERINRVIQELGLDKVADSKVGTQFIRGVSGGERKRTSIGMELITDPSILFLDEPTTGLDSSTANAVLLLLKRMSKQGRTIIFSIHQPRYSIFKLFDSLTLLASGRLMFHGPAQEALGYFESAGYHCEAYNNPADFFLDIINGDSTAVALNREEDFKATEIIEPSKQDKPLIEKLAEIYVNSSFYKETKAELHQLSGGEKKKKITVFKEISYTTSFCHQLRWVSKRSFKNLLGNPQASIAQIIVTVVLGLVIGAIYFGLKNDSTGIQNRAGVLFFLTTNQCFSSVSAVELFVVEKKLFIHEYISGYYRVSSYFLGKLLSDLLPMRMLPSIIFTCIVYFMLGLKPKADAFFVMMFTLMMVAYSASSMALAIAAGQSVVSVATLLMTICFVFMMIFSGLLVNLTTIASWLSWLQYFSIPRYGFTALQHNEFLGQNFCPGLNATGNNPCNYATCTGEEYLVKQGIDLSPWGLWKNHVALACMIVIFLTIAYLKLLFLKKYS

[2] = target: T1, ABCG2; parameters: expressed in transfected cells; host or cells: HEK293; settings: reference (23); read-out: IC50, pheophorbide A fluorescent dye uptake assay; cited from earlier work
[3] = target: T1, ABCG2; parameters: expressed in transfected cells; host or cells: HEK293; settings: read-out: IC50, ability to inhibit ATPase, cited from earlier work
[4] = target: T1, ABCG2; assay: Bioluminescence imaging (BLI) assay in HEK293/ABCG2/fLuc cells
How it was run: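 Light output from HEK293/ABCG2/fLuc cells plated at 4×10^4 per well, treated with compounds, imaged every 5 min for ~1 h. Values are signal-to-background ratios versus solvent control at 40 min, indicating ABCG2 inhibition. Dose range 0.001 μM-100 μM with 50 μg/mL D-luciferin for selected compounds.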

[5] = tested on: ABCG2-overexpressing NCI-H460/MX20 cells
[6] = tested on: NCI-H460 parent line; assay: MTX survival of parent NCI-H460 cells (XTT); format: cell-based, human; settings: three days
[7] = target: T2, MRP1 (Multiple Drug Resistance Protein 1) (Homo sapiens, UniProt P33527); assay: Colchicine resensitization assay in MDCKII cells overexpressing MRP1; format: cell-based; settings: for MRP1 inhibition: even at relatively high concentration (30 μM)
T2 construct: expressed in transfected cells; host or cells: MDCKII
Experimental: The ABC transporter-inhibiting ability of the potential inhibitors identified were further tested by evaluating their ability to resensitize ABCG2-overexpressing NCI-H460/MX20 cells to MTX, or MDCKII cells overexpressing Pgp or MRP1, to Col. Cells were plated in 96-well plates at 1×10^4 per well and allowed to attach. […] Colchicine was added at 1 μM for MDCKII/Pgp cells and 0.3 μM for MDCKII/MRP1 cells. […] In brief, 1 mg/ml XTT (Polysciences, Warrington, Pa.) was mixed with 0.025 mM PMS (Sigma), and 50 μl of the mixture was added to each well and incubated for 4 hours at 37° C. After the plates were mixed on a plate shaker, absorbance at 450 nm was measured. All results were normalized to a percentage of absorbance obtained in controls.
MDCKII cells overexpressing Pgp or MRP1 were incubated for two days in medium containing 1 μM (for Pgp) or 0.3 μM (for MRP1) Col and increasing concentrations of each ABCG2 inhibitor.

[8] = target: T1, ABCG2; settings: 1 h, 20 μM
[9] = target: T1, ABCG2; assay: BODIPY-prazosin uptake assay (flow cytometry) in HEK293/ABCG2 cells; settings: compound 20 μM

T2 sequence (P33527 whole entry): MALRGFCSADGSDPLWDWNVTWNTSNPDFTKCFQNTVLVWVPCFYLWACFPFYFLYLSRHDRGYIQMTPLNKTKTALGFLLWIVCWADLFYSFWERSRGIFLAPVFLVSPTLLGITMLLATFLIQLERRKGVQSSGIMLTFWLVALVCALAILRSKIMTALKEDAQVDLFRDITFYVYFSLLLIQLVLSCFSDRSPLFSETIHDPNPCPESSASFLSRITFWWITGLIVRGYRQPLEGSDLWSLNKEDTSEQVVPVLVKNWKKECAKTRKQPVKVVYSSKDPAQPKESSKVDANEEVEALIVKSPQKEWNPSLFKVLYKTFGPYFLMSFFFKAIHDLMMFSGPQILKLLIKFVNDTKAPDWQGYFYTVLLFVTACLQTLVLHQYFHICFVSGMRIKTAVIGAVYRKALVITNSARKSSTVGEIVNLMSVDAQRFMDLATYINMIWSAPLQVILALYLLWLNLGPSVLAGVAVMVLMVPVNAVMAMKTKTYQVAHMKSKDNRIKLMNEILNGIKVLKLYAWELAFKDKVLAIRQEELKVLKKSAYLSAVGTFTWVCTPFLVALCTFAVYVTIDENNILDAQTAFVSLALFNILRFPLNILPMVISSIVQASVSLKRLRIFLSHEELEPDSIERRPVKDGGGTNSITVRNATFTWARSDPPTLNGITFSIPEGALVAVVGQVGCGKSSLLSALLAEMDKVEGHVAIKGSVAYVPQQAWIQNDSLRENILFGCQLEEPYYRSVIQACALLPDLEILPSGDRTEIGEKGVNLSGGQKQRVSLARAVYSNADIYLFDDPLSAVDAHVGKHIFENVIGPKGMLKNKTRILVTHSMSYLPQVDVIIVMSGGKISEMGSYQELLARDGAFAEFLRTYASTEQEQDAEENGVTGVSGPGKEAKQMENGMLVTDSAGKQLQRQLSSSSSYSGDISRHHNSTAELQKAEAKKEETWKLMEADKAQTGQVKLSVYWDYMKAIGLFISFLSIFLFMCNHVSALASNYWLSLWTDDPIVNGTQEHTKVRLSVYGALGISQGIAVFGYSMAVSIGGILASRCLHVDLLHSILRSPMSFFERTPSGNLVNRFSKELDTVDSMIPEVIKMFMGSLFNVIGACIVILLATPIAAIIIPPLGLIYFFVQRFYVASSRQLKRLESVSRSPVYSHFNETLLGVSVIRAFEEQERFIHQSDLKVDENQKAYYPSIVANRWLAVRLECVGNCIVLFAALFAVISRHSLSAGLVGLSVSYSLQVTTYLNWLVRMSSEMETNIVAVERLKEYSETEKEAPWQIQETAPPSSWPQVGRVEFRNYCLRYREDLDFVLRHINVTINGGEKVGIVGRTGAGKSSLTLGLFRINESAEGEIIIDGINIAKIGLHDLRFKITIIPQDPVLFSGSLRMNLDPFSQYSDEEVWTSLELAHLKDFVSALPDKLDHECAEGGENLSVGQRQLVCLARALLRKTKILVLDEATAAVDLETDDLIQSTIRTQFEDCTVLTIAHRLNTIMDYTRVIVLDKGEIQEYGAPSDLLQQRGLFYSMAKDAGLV

COc1ccc2c3c([nH]c2c1)[C@H](C=C(C)C)N1C(=O)[C@@H]2CCCN2C(=O)[C@@H]1C3 [FTC, Fumitremorgin C]
IC50 ([1]; literature, read-out: IC50 values reported in literature): 300 to 1300 nM | concentration at which the plateau of the ABCG2-inhibiting effect is reached ([1]; previous reports): 10 µM | IC50 [2]: 800 nM | IC50 ([3]; Ozvegy et al. (21)): 1300 nM | IC50 ([3]; Ozvegy et al. (22)): 400 nM | IC50 ([3]; Robey et al. (13)): 1000 nM | IC50 ([4]; read-out: IC50 as an ABCG2 inhibitor (BLI), same assay, using the 30 min data): 6.6 µM | resensitization of H460/MX20 cells to MTX ([5]; FTC positive control (10 μM), MTX 15 or 30 μM, three days): restored the sensitivity of H460/MX20 cells to MTX and significantly reduced their survival rate

O=C1c2c(O)ccc(O)c2C(=O)c2c(NCCNCCO)ccc(NCCNCCO)c21 [MTX, mitoxantrone]
survival of parent cells ([6]; 15 μM MTX alone): < 20% | survival of parent cells ([6]; 30 μM MTX alone): ~9% | survival of H460/MX20 cells ([5]; 15 μM MTX alone, three days): 80% | survival of H460/MX20 cells ([5]; 30 μM MTX alone, three days): ~40%

COc1cc(N)c(Cl)cc1C(=O)NC1CCN(Cc2ccccc2)CC1 [clebopride maleate]
IC50 [4]: 8.2 µM | Fold (BLI enhancement), previously unknown compounds ([4]; human, 40 min, 17 μM): 7.9 fold | Fold (BLI enhancement, S/B ratio over control) ([4]; human, 40 min, 17 μM): 7.9 fold | MTX (mitoxantrone resensitization assay) ([5]; H460/MX20 cells with MTX): Y | MRP1 inhibition [7]: weak

Cc1c(-c2ccccc2)oc2c(C(=O)OCCN3CCCCC3)cccc2c1=O [flavoxate hydrochloride]
IC50 [4]: 20 µM | Fold (BLI enhancement), previously unknown compounds ([4]; human, 40 min, 17 μM): 11.2 fold | Fold (BLI enhancement, S/B ratio over control) ([4]; human, 40 min, 17 μM): 11.2 fold | MTX (mitoxantrone resensitization assay) ([5]; H460/MX20 cells with MTX): Y | MRP1 inhibition [7]: weak

O=C(OCC(O)CO)c1ccccc1Nc1ccnc2cc(Cl)ccc12 (stereo not shown) [glafenine]
IC50 [4]: 3.2 µM | BLI signal enhancement ([4]; human, 40 min, 17 μM): ~20 fold | Fold (BLI enhancement), previously unknown compounds ([4]; human, 40 min, 17 μM): 20.6 fold | Fold (BLI enhancement, S/B ratio over control) ([4]; human, 40 min, 17 μM): 20.6 fold | MTX (mitoxantrone resensitization assay) [5]: Y | concentration that effectively resensitizes H460/MX20 cells to MTX [5]: ≤ 0.001 µM | relative potency in dose-dependent MTX resensitization [5]: more potent ABCG2 inhibitor than FTC, doxazosin mesylate, clebopride maleate, and flavoxate hydrochloride | survival of H460/MX20 cells [5]: 13% | concentration from which MDCKII/MRP1 cells are resensitized to Col ([7]; 0.3 μM Col, two days): 10 µM

CCN(CC)CCCC(C)Nc1c2ccc(Cl)cc2nc2ccc(OC)cc12 (stereo not shown) [quinacrine]
Fold (BLI enhancement), previously unknown compounds ([4]; human, 40 min, 17 μM): 10.6 fold | Fold (BLI enhancement, S/B ratio over control) ([4]; human, 40 min, 17 μM): 10.6 fold | cytotoxicity in the MTX resensitization assay [5]: too cytotoxic to be tested | BODIPY-prazosin assay result [8]: confirmed as an ABCG2 inhibitor

verteporfin
Fold (BLI enhancement, S/B ratio over control) ([4]; Table 2, HEK293/ABCG2/fLuc cells, compound approximately 17 μM, ~50 μg/mL D-luciferin, 40 min time point): 11.3 fold | Fold (BLI enhancement), previously unknown compounds ([4]; Table 4, approximately 17 μM, 40 min time point): 11.3 fold | MTX (mitoxantrone resensitization assay) ([5]; H460/MX20 cells with MTX): Y | resensitization of H460/MX20 cells to MTX ([5]; compound 1 μM with 15 μM MTX, two days): showed resensitization of H460/MX20 cells to MTX | cytotoxicity in the MTX resensitization assay ([5]; compound 20 μM, H460/MX20 cells): too cytotoxic to be tested | cytotoxicity in the MTX resensitization assay ([5]; compound 20 μM, H460/MX20 cells, listed as Verteporfin): too cytotoxic to validate by MTX assay | BP (BODIPY-prazosin dye uptake assay) ([9]; […] BODIPY-prazosin, 1 h): N | BODIPY-prazosin assay result ([9]; flow cytometry): negative

— US20150148256A1, “BIOLUMINESCENCE IMAGING-BASED SCREENING ASSAY AND INHIBITORS OF ABCG2” (THE JOHNS HOPKINS UNIVERSITY, priority 2008, published 2015)
